≈ marks a conversion by molar mass, not a printed value. Where only a bound is given, the exact number is not on record here.

A short description of data set [1]: AUC (0 to infinity) in Sprague-Dawley rat at 50 mg/kg, po measured upto 24 hrs by LC/MS/MS analysis. The data set is classed as ADME, organism-based. Also noted: time < 24 hrs, dose 50 mg/kg, route po. To be noted: in vivo.
The nature of data set [2]: Elimination half life in Balb/c mouse at 50 mg/kg, po measured upto 24 hrs by LC/MS/MS analysis. To be noted: in vivo, read-out: beta t1/2 (converted). The data set is classed as ADME, organism-based.
Data set [3] is described as follows: Elimination half life in Sprague-Dawley rat at 5 mg/kg, iv measured upto 24 hrs by LC/MS/MS analysis. The data set is classed as ADME, organism-based. To be noted: in vivo, read-out: beta t1/2 (converted).
Data set [4] in a line: AUC (0 to t) in Balb/c mouse at 50 mg/kg, po measured upto 24 hrs by LC/MS/MS analysis. The data set is classed as ADME, organism-based. Details: dose 50 mg/kg, time < 24 hrs, route po. To be noted: in vivo.
Data set [5] is described as follows: Apparent permeability across basolateral to apical side in human Caco-2 cells incubated for 21 days. The data set is classed as ADME, cell-based. To be noted: time 21 day. On the technique in general: Passage across Caco-2 layers is used to estimate intestinal permeability.
The nature of data set [6]: AUC (0 to t) in Sprague-Dawley rat at 50 mg/kg, po measured upto 24 hrs by LC/MS/MS analysis. The data set is classed as ADME, organism-based. Details: dose 50 mg/kg, time < 24 hrs, route po. To be noted: in vivo.
Data set [7] is described as follows: AUC (0 to t) in Sprague-Dawley rat at 5 mg/kg, iv measured upto 24 hrs by LC/MS/MS analysis. The data set is classed as ADME, organism-based. Details: time < 24 hrs, dose 5 mg/kg, route iv. To be noted: in vivo.
Data set [8] is described as follows: Cmax in Sprague-Dawley rat at 5 mg/kg, iv measured upto 24 hrs by LC/MS/MS analysis. It is filed as ADME, organism-based. Also noted: time < 24 hrs, dose 5 mg/kg, route iv. To be noted: in vivo.
Data set [9] can be described thus: Clearance in Sprague-Dawley rat at 5 mg/kg, iv measured upto 24 hrs by LC/MS/MS analysis. The data set is classed as ADME, organism-based. To be noted: in vivo.
Data set [10] in a line: Lipophilicity, log D of the compound in octanol/water at pH 6.8 incubated for 72 hrs under shaking condition by shake flask based HPLC-PDA method. The data set is classed as physicochemical. To be noted: pH 6.8, 72 h.
Data set [11] can be described thus: Aqueous solubility of compound by HPLC-PDA method. It is filed as physicochemical. To be noted: buffer.
Data set [12] is described as follows: Oral bioavailability in Balb/c mouse at 50 mg/kg measured upto 24 hrs by LC/MS/MS analysis. To be noted: in vivo. The data set is classed as ADME, organism-based.
A short description of data set [13]: Lipophilicity, log D of the compound in octanol/water at pH 2.0 incubated for 72 hrs under shaking condition by shake flask based HPLC-PDA method. To be noted: pH 2, 72 h. The data set is classed as physicochemical.
Data set [14] in a line: Tmax in Balb/c mouse at 50 mg/kg, po measured upto 24 hrs by LC/MS/MS analysis. It is filed as ADME, organism-based. To be noted: in vivo.
Data set [15] is described as follows: AUC (0 to infinity) in Sprague-Dawley rat at 5 mg/kg, iv measured upto 24 hrs by LC/MS/MS analysis. The data set is classed as ADME, organism-based. Also noted: time < 24 hrs, dose 5 mg/kg, route iv. To be noted: in vivo.
The nature of data set [16]: AUC (0 to t) in Balb/c mouse at 5 mg/kg, iv measured upto 24 hrs by LC/MS/MS analysis. The data set is classed as ADME, organism-based. Details: time < 24 hrs, dose 5 mg/kg, route iv. To be noted: in vivo.
Data set [17] in a line: Cmax in Balb/c mouse at 50 mg/kg, po measured upto 24 hrs by LC/MS/MS analysis. To be noted: in vivo. It is filed as ADME, organism-based. Details: time < 24 hrs, dose 50 mg/kg, route po.
The nature of data set [18]: Chemical stability of the compound under 60 degree C high temperature by measuring compound purity incubated for 10 days by HPLC-PDA method analysis relative to initial purity. It is filed as physicochemical. To be noted: 240 h; time 10 day.
Data set [19] in a line: MRT (0 to infinity) in Sprague-Dawley rat at 50 mg/kg, po measured upto 24 hrs by LC/MS/MS analysis. It is filed as ADME, organism-based. To be noted: in vivo.
Data set [20] in a line: Cmax in Sprague-Dawley rat at 50 mg/kg, po measured upto 24 hrs by LC/MS/MS analysis. It is filed as ADME, organism-based. Also noted: time < 24 hrs, dose 50 mg/kg, route po. To be noted: in vivo.
Data set [21] can be described thus: Efflux ratio of apparent permeability across basolateral to apical side over apical to basolateral side in human Caco-2 cells. The data set is classed as ADME, cell-based.
A short description of data set [22]: Lipophilicity, log P of the compound in octanol/water incubated for 72 hrs under shaking condition by shake flask based HPLC-PDA method. The data set is classed as physicochemical. To be noted: 72 h.
Data set [23] in a line: Elimination half life in Balb/c mouse at 5 mg/kg, iv measured upto 24 hrs by LC/MS/MS analysis. It is filed as ADME, organism-based. To be noted: in vivo, read-out: beta t1/2 (converted).
The nature of data set [24]: Lipophilicity, log D of the compound in octanol/water at pH 4.0 incubated for 72 hrs under shaking condition by shake flask based HPLC-PDA method. To be noted: pH 4, 72 h. The data set is classed as physicochemical.
Data set [25] in a line: Tmax in Sprague-Dawley rat at 50 mg/kg, po measured upto 24 hrs by LC/MS/MS analysis. The data set is classed as ADME, organism-based. To be noted: in vivo.
A short description of data set [26]: Oral bioavailability in Sprague-Dawley rat at 50 mg/kg measured upto 24 hrs by LC/MS/MS analysis. It is filed as ADME, organism-based. To be noted: in vivo.
Data set [27] is described as follows: Lipophilicity, log D of the compound in octanol/water at pH 7.6 incubated for 72 hrs under shaking condition by shake flask based HPLC-PDA method. To be noted: pH 7.6, 72 h. It is filed as physicochemical.
Data set [28] in a line: Chemical stability of the compound under 92.5% humidity by measuring compound purity incubated for 10 days by HPLC-PDA method relative to initial purity. To be noted: 240 h; time 10 day. It is filed as physicochemical.
The nature of data set [29]: MRT (0 to infinity) in Sprague-Dawley rat at 5 mg/kg, iv measured upto 24 hrs by LC/MS/MS analysis. The data set is classed as ADME, organism-based. To be noted: in vivo.
Data set [30] is described as follows: Cmax in Balb/c mouse at 5 mg/kg, iv measured upto 24 hrs by LC/MS/MS analysis. To be noted: in vivo. Also noted: dose 5 mg/kg, time < 24 hrs, route iv. It is filed as ADME, organism-based.
Data set [31] can be described thus: Apparent permeability across apical to basolateral side in human Caco-2 cells incubated for 21 days. It is filed as ADME, cell-based. To be noted: time 21 day.
A short description of data set [32]: Chemical stability of the compound under 4500 +/- 500 lx light condition by measuring compound purity incubated for 10 days by HPLC-PDA method relative to initial purity. To be noted: 240 h; time 10 day. The data set is classed as physicochemical.
Data set [33] can be described thus: Elimination half life in Sprague-Dawley rat at 50 mg/kg, po measured upto 24 hrs by LC/MS/MS analysis. The data set is classed as ADME, organism-based. To be noted: in vivo, read-out: beta t1/2 (converted).
Data set [34] concerns Mycobacterium tuberculosis. The data set is described as follows: Antibacterial activity against Mycobacterium tuberculosis H37Rv BALB/c mouse model assessed as reduction in delta CFU in lungs at 25 mg/kg via oral gavage for 30 days. The data set is classed as functional. To be noted: time 30 day.
In data set [35] the test system is Mycobacterium tuberculosis. Briefly: Antibacterial activity against Mycobacterium tuberculosis H37Rv BALB/c mouse model assessed as reduction in CFU in lungs at 25 mg/kg via oral gavage for 30 days (reference value: 5.92 +/-0.29). It is filed as functional. To be noted: time 30 day.

As to `Cl.O=c1cc(N2CCN(CC3CCCCC3)CC2)sc2c([N+](=O)[O-])cc(C(F)(F)F)cc12`, the total exposure AUC(0-inf) stood at 982 ng·h/mL in data set [1] and 1940 ng·h/mL in data set [15]. Also, the half-life in data set [2] was 6.72 h; in data set [3] it was 7.92 h; in data set [23], 7.59 h; in [33] it was 5.38 h. Further, the AUCt in data set [4] (24 h) worked out at 2251 ng·h/mL; in [16] (24 h), 6434 ng·h/mL. Further, the Papp B→A in [5] was determined as 0.14 ×10⁻⁶ cm/s. The exposure AUC(0-t) at 24 h in [6] came to 961 ng·h/mL; in [7] it was 1890 ng·h/mL. For the same molecule, the Cmax in data set [8] turned out to be 3490 ng/mL; in data set [17], 502 ng/mL; in data set [20], 163 ng/mL; in data set [30], 5990 ng/mL. Besides, in data set [9], the clearance turned out to be 43.6 mL/min/kg. Moreover, the pH-dependent lipophilicity (logD) is given as over 4.27 in data set [10], 1.3 in data set [13], 3.77 in [24] and over 4.29 in data set [27]. Besides, in data set [11] (read-out: solubility), the solubility stood at 28.1 µg/mL. The molecule further yielded a F in data set [12] (po, 50 mg/kg, 24 h) of 14.1%. The Tmax in data set [14] stood at 0.42 h; in [25] it was 1.67 h. Moreover, the figures for the Stability in [18], in data set [28] and in data set [32] were 100%, 100% and 99.8%, respectively. The results for the MRT inf in [19] and in data set [29] were 5.13 h and 2.52 h, respectively. In data set [21], the efflux ratio was found to be 0.36. Further, the logP in data set [22] is listed as 2.56. In addition, the bioavailability in data set [26] worked out at 5.07%. Also, the Papp A→B in [31] is 0.39 ×10⁻⁶ cm/s.

As for `O=C(O)/C=C/C(=O)O.O=C(O)/C=C/C(=O)O.O=C(O)/C=C/C(=O)O.O=c1cc(N2CCN(CC3CCCCC3)CC2)sc2c([N+](=O)[O-])cc(C(F)(F)F)cc12.O=c1cc(N2CCN(CC3CCCCC3)CC2)sc2c([N+](=O)[O-])cc(C(F)(F)F)cc12`, the half-life in [2] was 8.03 h; in data set [23], 6.98 h. Also, the AUC(0-t) at 24 h in data set [4] (Balb/c) came to 3440 ng·h/mL; in [16] (Balb/c), 1990 ng·h/mL. For the same molecule, in data set [5], the Papp B→A stood at 0.11 ×10⁻⁶ cm/s. Also, the solubility in [11] (read-out: solubility) stood at 132 µg/mL. In [12] (Balb/c), this molecule yielded a bioavailability of 18.9%. Besides, the time of peak concentration (Tmax) in data set [14] was determined as 0.67 h. Also, the maximum concentration (Cmax) in [17] worked out at 542 ng/mL; in [30], 2760 ng/mL. Moreover, the apical-to-basolateral permeability (Papp A→B) in [31] amounted to 7.79 ×10⁻⁶ cm/s.

As for `NNC(=O)c1ccncc1` [ISONIAZID], the Activity in [34] is recorded as 3.89 log10CFU; in data set [35], 3.64 log10CFU.

Regarding `O=c1nc(N2CCN(CC3CCCCC3)CC2)sc2c([N+](=O)[O-])cc(C(F)(F)F)cc12` [MACOZINONE], the solubility in [11] was determined as 0.11 µg/mL (≈ 0.241 µM).

By AUC(0-inf) is commonly meant total exposure, with the tail of the curve extrapolated. The term Papp B→A denotes the apparent permeability from the basolateral to the apical side of a cell layer. In general, AUC(0-t) refers to exposure summed from dosing to a finite time, without extrapolation to infinity. The Cmax is the maximum level reached in the sampled fluid or tissue. A word on the clearance: it is the volume of plasma or blood freed of the substance per unit of time. As usually defined, the logD is the decadic logarithm of the distribution of all forms, ionised or not, between an organic phase and buffer at a given pH. Higher therefore signals a more lipophilic compound. As usually defined, the solubility is the dissolved amount per volume that the medium holds. One may read the Tmax as the time from dosing to the highest level. Usually MRT inf stands for a mean duration of stay, worked out from the concentration-time curve. For orientation: efflux ratio means a quotient of directional permeabilities that is used to spot active efflux. The term logP denotes the decadic logarithm of the partition coefficient of the neutral form, usually between octanol and water. High values mean higher lipophilicity, low ones lower lipophilicity. For orientation: bioavailability means the share of a dose that reaches the circulation, judged against a reference dose that is usually intravenous. High values mean good availability, low ones poor availability. For orientation: Papp A→B means the apparent permeability from the apical to the basolateral side of a cell layer.

These data come from ChEMBL document CHEMBL5352469, “Solubility-driven optimization of benzothiopyranone salts leading to a preclinical candidate with improved pharmacokinetic properties and activity against Mycobacterium tuberculosis” (Eur J Med Chem, 2023).
